#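 Interpolation was linear, between the two tested concentrations surrounding the appropriate level; five concentrations were tested over 48 hours in 96-well plates. At the GI50, growth is halved.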 The source made the active and inactive calls. Rule as the data show it: active = GI50 up to about 1.1 µM and inactive = higher.
# Columns and labels:
# Test in all cases: inhibition of tumour cell growth, NCI panel, 48 h
# MOLT-4 = test system: MOLT-4
# SK-MEL-5 = test system: SK-MEL-5
# HT-29 = test system: HT-29
# KM12 = test system: KM12
# DMS-114 = test system: DMS-114
# UO-31 = test system: UO-31
# 786-0 = test system: 786-0
# SR = test system: SR
# SNB-19 = test system: SNB-19
# SW-620 = test system: SW-620
# SK-MEL-28 = test system: SK-MEL-28
# CAKI-1 = test system: CAKI-1
# SN12C = test system: SN12C
# HOP-92 = test system: HOP-92
# A549 = test system: A549
# SF-268 = test system: SF-268
# CCRF-CEM = test system: CCRF-CEM
# BT-549 = test system: BT-549
# DU-145 = test system: DU-145
# T47D = test system: T47D
SMILES,GI50 (MOLT-4),GI50 (SK-MEL-5),GI50 (HT-29),GI50 (KM12),GI50 (DMS-114),GI50 (UO-31),GI50 (786-0),GI50 (SR),GI50 (SNB-19),GI50 (SW-620),GI50 (SK-MEL-28),GI50 (CAKI-1),GI50 (SN12C),GI50 (HOP-92),GI50 (A549),GI50 (SF-268),GI50 (CCRF-CEM),GI50 (BT-549),GI50 (DU-145),GI50 (T47D)
CC1(C)OC(=O)C(=Cc2ccc(O)cc2)C(=O)O1,> 100 µM (inactive),> 100 µM (inactive),> 100 µM (inactive),> 100 µM (inactive),> 100 µM (inactive),> 100 µM (inactive),> 100 µM (inactive),> 100 µM (inactive),> 100 µM (inactive),> 100 µM (inactive),> 100 µM (inactive),> 100 µM (inactive),> 100 µM (inactive),> 100 µM (inactive),> 100 µM (inactive),> 100 µM (inactive),> 100 µM (inactive),–,–,–
O=[As]O,> 56.8 µM (inactive),32.4 µM (inactive),> 66.2 µM (inactive),> 100 µM (inactive),13.1 µM (inactive),> 100 µM (inactive),> 57.3 µM (inactive),18.9 µM (inactive),> 67.5 µM (inactive),> 64.1 µM (inactive),> 59 µM (inactive),> 56.1 µM (inactive),> 48.4 µM (inactive),> 41.6 µM (inactive),> 100 µM (inactive),> 47.1 µM (inactive),15.6 µM (inactive),41.3 µM (inactive),> 100 µM (inactive),> 100 µM (inactive)
CCc1ccc(/C=C\c2cc(OC)c(OC)c(OC)c2)cc1,0.043 µM (active),0.0181 µM (active),0.00993 µM (active),0.0452 µM (active),0.0508 µM (active),0.0355 µM (active),< 0.0196 µM (active),0.00247 µM (active),0.0148 µM (active),0.00897 µM (active),0.0627 µM (active),0.038 µM (active),0.0159 µM (active),0.00813 µM (active),0.0223 µM (active),0.149 µM (active),0.00998 µM (active),0.18 µM (active),0.0303 µM (active),0.17 µM (active)
O=C(OC[C@H]1O[C@@H](OC(=O)c2cc(O)c(O)c(O)c2)[C@H](OC(=O)c2cc(O)c(O)c(O)c2)[C@@H](OC(=O)c2cc(O)c(O)c(O)c2)[C@@H]1OC(=O)c1cc(O)c(O)c(O)c1)c1cc(O)c(O)c(O)c1 [PENTAGALLOYL GLUCOSE],3 µM (inactive),11.3 µM (inactive),6.92 µM (inactive),2.34 µM (inactive),4.21 µM (inactive),5.79 µM (inactive),4.99 µM (inactive),4.13 µM (inactive),4.88 µM (inactive),6 µM (inactive),15.3 µM (inactive),7.67 µM (inactive),11.9 µM (inactive),5.58 µM (inactive),3.54 µM (inactive),4.57 µM (inactive),3.33 µM (inactive),–,–,–

# — ChEMBL document CHEMBL1201862, “PubChem BioAssay data set” (2004)
